Laboratory results from publication PMC11589570, “Critical assessment of LC3/GABARAP ligands used for degrader development and ligandability of LC3/GABARAP binding pockets” (Nature Communications, 2024).
“And” between values parts separate entries of the source, which are not always exact repeats. Equal values may be shown once.

Assays:
Assay in all cases: FP assay with Cy5-labelled p62 LIR tracer (protein titration and tracer displacement)
[1] = target: GABARAP (Homo sapiens, UniProt O95166); type: binding; conditions: for normalized FP signal, p62 LIR tracer displacement: GABARAP; for compound titration GABARAP (displacement curve, FP signal): two replicate columns per compound
Sequence of GABARAP (O95166 1-116): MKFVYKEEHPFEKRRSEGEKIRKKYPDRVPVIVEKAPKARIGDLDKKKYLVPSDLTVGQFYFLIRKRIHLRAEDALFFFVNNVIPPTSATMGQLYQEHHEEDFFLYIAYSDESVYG

[2] = target: GABARAPL1 (Homo sapiens, UniProt Q9H0R8); type: binding; conditions: for normalized FP signal, p62 LIR tracer displacement: GABARAPL1; for compound titration GABARAPL1 (displacement curve, FP signal): two replicate columns per compound; for FP tracer displacement curve signal (compound titration): duplicate values
Sequence of GABARAPL1 (Q9H0R8 whole entry): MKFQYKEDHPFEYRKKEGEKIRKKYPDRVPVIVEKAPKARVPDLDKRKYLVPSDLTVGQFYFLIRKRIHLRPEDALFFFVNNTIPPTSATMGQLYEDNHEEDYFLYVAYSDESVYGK

[3] = target: GABARAPL2 (Homo sapiens, UniProt P60520); conditions: GABARAPL2
Sequence of GABARAPL2 (P60520 whole entry): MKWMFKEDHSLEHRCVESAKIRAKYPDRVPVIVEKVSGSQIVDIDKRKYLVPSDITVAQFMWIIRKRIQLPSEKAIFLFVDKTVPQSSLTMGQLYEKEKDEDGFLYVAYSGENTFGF

[4] = target: LC3C (Homo sapiens, UniProt Q9BXW4); type: binding; conditions: for normalized FP signal, p62 LIR tracer displacement: LC3C; for compound titration LC3C (displacement curve, FP signal): two replicate columns per compound
Sequence of LC3C (Q9BXW4 1-126): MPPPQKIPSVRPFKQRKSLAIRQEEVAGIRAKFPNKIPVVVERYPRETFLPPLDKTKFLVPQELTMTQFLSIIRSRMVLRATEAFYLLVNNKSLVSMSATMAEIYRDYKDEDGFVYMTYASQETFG

[5] = log10 concentration [M] -3.82391, listed as 8F20
[6] = log10 concentration [M] -4.1549, listed as 8F20
[7] = log10 concentration [M] -4.60206, listed as 8F20
[8] = log10 concentration [M] -5, listed as 8F20
[9] = log10 concentration [M] -5.30103, listed as 8F20
[10] = log10 concentration [M] -5.69897, listed as 8F20
[11] = log10 concentration [M] -6.22185, listed as 8F20
[12] = log10 concentration [M] -6.69897, listed as 8F20
[13] = log10 concentration [M] -7.30103, listed as 8F20
[14] = log10 concentration [M] -7.79588
[15] = log10 concentration [M] -8.08092, listed as 8F20
[16] = log10 concentration [M] -3.82391
[17] = log10 concentration [M] -4.1549
[18] = log10 concentration [M] -4.60206
[19] = log10 concentration [M] -5.30103
[20] = log10 concentration [M] -5.69897
[21] = log10 concentration [M] -6.22185
[22] = log10 concentration [M] -6.69897
[23] = log10 concentration [M] -7.30103
[24] = log10 concentration [M] -8.08092
[25] = log10 concentration [M] -7.79588, listed as 8F20

With `Cc1ccc(C(=O)N(CCCN)[C@@H](c2nc3cc(Cl)ccc3c(=O)n2Cc2ccccc2)C(C)C)cc1` [compound 3, (R)-N-(3-aminopropyl)-N-(1-(3-benzyl-7-chloro-4-oxo-3,4-dihydroquinazolin-2-yl)−2-methylpropyl)−4-methylbenzamide] the “normalized FP signal, p62 LIR tracer displacement” value (from here on “normalized FP signal”) [1, 5] was 89.6552 and 90.5172, the “normalized FP signal” value [1, 6] was 93.7931 and 93.9655 and the “normalized FP signal” value [1, 7] was 101.379 and 97.931. For the same compound, the “normalized FP signal” value [1, 8] was 97.4138 and 100.172, the “normalized FP signal” value [1, 9] was 96.2069 and 97.931 and the “normalized FP signal” value [1, 10] was 90 and 89.6552. The “normalized FP signal” value [1, 11] was 96.2069 and 96.5517, the “normalized FP signal” value [1, 12] was 96.5517 and 96.3793 and the “normalized FP signal” value [1, 13] was 100 and 98.2759. For the same compound, the “normalized FP signal” value [1, 14] was 95.5172, the “normalized FP signal” value [1, 15] was 97.069 and 98.1034 and the “compound titration GABARAP (displacement curve, FP signal)” value [1, 16] was 89.6552 and 90.5172. The “compound titration GABARAP (displacement curve, FP signal)” value [1, 17] was 93.7931 and 93.9655, the “compound titration GABARAP (displacement curve, FP signal)” value [1, 18] was 101.379 and 97.931 and the “compound titration GABARAP (displacement curve, FP signal)” value ([1]; log10 concentration [M] -5) was 97.4138 and 100.172. The “compound titration GABARAP (displacement curve, FP signal)” value [1, 19] was 96.2069 and 97.931, the “compound titration GABARAP (displacement curve, FP signal)” value [1, 20] was 90 and 89.6552 and the “compound titration GABARAP (displacement curve, FP signal)” value [1, 21] was 96.2069 and 96.5517. The “compound titration GABARAP (displacement curve, FP signal)” value [1, 22] was 96.5517 and 96.3793, the “compound titration GABARAP (displacement curve, FP signal)” value [1, 23] was 100 and 98.2759 and the “compound titration GABARAP (displacement curve, FP signal)” value [1, 14] was 95.5172. The “compound titration GABARAP (displacement curve, FP signal)” value [1, 24] was 97.069 and 98.1034, the “normalized FP signal” value [2, 5] was 96.5714 and 97.4286 and the “normalized FP signal” value [2, 6] was 97.2857 and 99. For the same compound, the “normalized FP signal” value [2, 18] was 101, the “normalized FP signal” value [2, 8] was 101.143 and 102 and the “normalized FP signal” value [2, 19] was 100.143. For the same compound, the “normalized FP signal” value [2, 10] was 94.7143 and 94.5714, the “normalized FP signal” value [2, 11] was 98.2857 and 100.429 and the “normalized FP signal” value [2, 12] was 99.7143 and 102.286. The “normalized FP signal” value [2, 13] was 103.571 and 102.286, the “normalized FP signal” value [2, 25] was 96.8571 and 101.571 and the “normalized FP signal” value [2, 15] was 99.1429 and 98.1429. For the same compound, the “compound titration GABARAPL1 (displacement curve, FP signal)” value (shortened to “compound titration GABARAPL1”) [2, 16] was 96.5714 and 97.4286, the “compound titration GABARAPL1” value [2, 17] was 97.2857 and 99 and the “compound titration GABARAPL1” value [2, 18] was 101. The “compound titration GABARAPL1” value ([2]; log10 concentration [M] -5) was 101.143 and 102, the “FP tracer displacement curve signal (compound titration)” value (“FP tracer displacement curve signal” for short) [2, 10] was 94.7143 and 94.5714 and the “FP tracer displacement curve signal” value [2, 11] was 98.2857 and 100.429. The “FP tracer displacement curve signal” value [2, 12] was 99.7143 and 102.286, the “FP tracer displacement curve signal” value [2, 13] was 103.571 and 102.286 and the “FP tracer displacement curve signal” value [2, 25] was 96.8571 and 101.571. The “FP tracer displacement curve signal” value [2, 15] was 99.1429 and 98.1429, the “normalized FP signal” value [3, 5] was 94 and 100 and the “normalized FP signal” value [3, 6] was 98.4 and 97.2. For the same compound, the “normalized FP signal” value [3, 7] was 98.4 and 102.4, the “normalized FP signal” value ([3]; log10 concentration [M] -5) was 103.2 and the “normalized FP signal” value [3, 9] was 100.4 and 101.6. The “normalized FP signal” value [3, 10] was 96.8 and 92, the “normalized FP signal” value [3, 11] was 103.6 and 100.4 and the “normalized FP signal” value [3, 12] was 101.2 and 96. For the same compound, the “normalized FP signal” value [3, 13] was 107.2 and 97.6, the “normalized FP signal” value [3, 25] was 97.2 and 95.6 and the “normalized FP signal” value [3, 15] was 101.2 and 103.6. The “normalized FP signal” value [4, 5] was 89.8 and 92.8, the “normalized FP signal” value [4, 6] was 92.6 and 95.4 and the “normalized FP signal” value [4, 7] was 97.8 and 100.8. For the same compound, the “normalized FP signal” value [4, 8] was 94.6 and 96.4, the “normalized FP signal” value [4, 9] was 98.8 and 92.6 and the “normalized FP signal” value [4, 10] was 85.8 and 92.2. The “normalized FP signal” value [4, 11] was 93.8 and 95, the “normalized FP signal” value [4, 12] was 99.2 and 96.4 and the “normalized FP signal” value [4, 13] was 101 and 100.8. The “normalized FP signal” value [4, 14] was 94.6, the “normalized FP signal” value [4, 25] was 93.4 and the “normalized FP signal” value [4, 15] was 95.2 and 100.4. For the same compound, the “compound titration LC3C (displacement curve, FP signal)” value (“compound titration LC3C” below) [4, 16] was 89.8 and 92.8, the “compound titration LC3C” value [4, 17] was 92.6 and 95.4 and the “compound titration LC3C” value [4, 18] was 97.8 and 100.8. The “compound titration LC3C” value ([4]; log10 concentration [M] -5) was 94.6 and 96.4, the “compound titration LC3C” value [4, 19] was 98.8 and 92.6 and the “compound titration LC3C” value [4, 20] was 85.8 and 92.2. The “compound titration LC3C” value [4, 21] was 93.8 and 95, the “compound titration LC3C” value [4, 22] was 99.2 and 96.4 and the “compound titration LC3C” value [4, 23] was 101 and 100.8. For the same compound, the “compound titration LC3C” value [4, 14] was 93.4 and 94.6 and the “compound titration LC3C” value [4, 24] was 95.2 and 100.4.
